From ChEMBL document CHEMBL1156471, “Targeting host cell furin proprotein convertases as a therapeutic strategy against bacterial toxins and viral pathogens” (J Biol Chem, 2007)
Non-standard residues stand in square brackets, D forms with d. Residues, ends and D or L forms follow the SMILES beside them. Ac5c = NC1(C(=O)O)CCCC1; Sar = CNCC(=O)O

These compounds were tested against Furin (Homo sapiens, UniProt P09958).
Chain of Furin (P09958 whole entry): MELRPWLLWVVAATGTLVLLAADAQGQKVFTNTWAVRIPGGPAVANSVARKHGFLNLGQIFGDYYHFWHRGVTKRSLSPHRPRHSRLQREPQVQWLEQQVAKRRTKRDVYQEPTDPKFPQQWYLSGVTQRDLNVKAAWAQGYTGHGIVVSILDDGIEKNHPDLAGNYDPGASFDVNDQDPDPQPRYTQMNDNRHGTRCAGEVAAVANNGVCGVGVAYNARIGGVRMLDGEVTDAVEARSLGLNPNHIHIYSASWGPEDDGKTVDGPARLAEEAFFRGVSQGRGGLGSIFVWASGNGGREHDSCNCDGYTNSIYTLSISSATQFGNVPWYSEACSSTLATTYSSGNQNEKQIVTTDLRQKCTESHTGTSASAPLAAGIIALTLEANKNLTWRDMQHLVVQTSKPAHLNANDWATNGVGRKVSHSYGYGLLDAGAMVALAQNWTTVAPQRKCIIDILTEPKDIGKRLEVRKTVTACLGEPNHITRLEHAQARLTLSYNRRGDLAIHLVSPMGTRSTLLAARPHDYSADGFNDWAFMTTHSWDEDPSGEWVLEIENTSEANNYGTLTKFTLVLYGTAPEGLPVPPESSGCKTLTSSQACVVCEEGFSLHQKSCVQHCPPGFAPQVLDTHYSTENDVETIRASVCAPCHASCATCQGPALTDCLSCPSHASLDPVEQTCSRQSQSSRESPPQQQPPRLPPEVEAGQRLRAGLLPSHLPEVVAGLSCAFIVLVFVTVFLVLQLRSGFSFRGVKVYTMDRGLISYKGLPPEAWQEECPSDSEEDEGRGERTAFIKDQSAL

Q: For `C[C@H](NC(=O)[C@H](C)NC(=O)[C@H](CCCN=C(N)N)NC(=O)[C@H](CCCN=C(N)N)NC(=O)[C@H](CCCN=C(N)N)NC(=O)[C@H](CCC(=O)O)NC(=O)[C@H](CCCN=C(N)N)NC(=O)[C@@H]1CCCN1C(=O)[C@@H](N)[C@@H](C)O)C(=O)N[C@@H](CCCN=C(N)N)C(=O)N(C)CC(=O)O`, which Ki is on record?
A: > 100 nM

Q: Which Ki does the source give for H-TPQRSRRRKKRG-OH here?
A: > 100 nM

Q: H-GGGTPRARRRKKRF-OH was tested. Which Ki did it give?
A: 67 nM

Q: H-TPQRYRRRKKRG-OH was tested. Which Ki did it give?
A: > 100 nM

Q: How did the Ki turn out when `C[C@@H](O)[C@H](N)C(=O)N1CCC[C@H]1C(=O)N[C@@H](CCC(N)=O)C(=O)N[C@@H](CCCN=C(N)N)C(=O)N[C@H](CCCCN)C(=O)N[C@@H](CCCN=C(N)N)C(=O)N[C@@H](CCCN=C(N)N)C(=O)N[C@@H](CCCN=C(N)N)C(=O)N[C@@H](CCCCN)C(=O)N[C@@H](CCCCN)C(=O)N[C@@H](CCCNC(=N)N)C(=O)NCC(=O)O` was run?
A: > 100 nM

Q: With `C[C@H](NC(=O)[C@H](C)NC(=O)[C@H](CCC(=O)O)NC(=O)[C@H](CCCN=C(N)N)NC(=O)[C@@H]1CCCN1C(=O)[C@@H](N)[C@@H](C)O)C(=O)N[C@@H](CCCN=C(N)N)C(=O)N[C@@H](CCCCN)C(=O)N[C@@H](CCCCN)C(=O)N[C@@H](CCCN=C(N)N)C(=O)N(C)CC(=O)O` (H-TPREAARKKR[Sar]-OH) as the compound, how does the Ki read?
A: > 100 nM

Q: `C[C@@H](O)[C@H](N)C(=O)N1CCC[C@H]1C(=O)N[C@@H](CCCNC(=N)N)C(=O)N[C@@H](CCC(=O)O)C(=O)N[C@@H](CCCNC(=N)N)C(=O)N[C@@H](CCCNC(=N)N)C(=O)N[C@@H](CCCNC(=N)N)C(=O)N[C@@H](CCCCN)C(=O)N[C@@H](CCCCN)C(=O)N[C@@H](CCCNC(=N)N)C(=O)NCC(=O)O` was tested. Which Ki did it give?
A: > 100 nM

Q: Which Ki does the source give for H-TPREAAAKKRG-OH here?
A: > 100 nM

Q: H-TPRARRRKKRV-NH2 was tested. Which Ki did it give?
A: 80 nM

Q: How did the Ki turn out when H-TPRERAAKKR-OH was run?
A: > 100 nM

Q: H-TARERRRKKR-OH was tested. Which Ki did it give?
A: > 100 nM

Q: Which Ki does the source give for `C[C@@H](O)[C@H](N)C(=O)N1CCC[C@H]1C(=O)N[C@@H](CCCN=C(N)N)C(=O)N[C@H](CCCCN)C(=O)N[C@@H](CCCN=C(N)N)C(=O)N[C@@H](CCCN=C(N)N)C(=O)N[C@@H](CCCN=C(N)N)C(=O)N[C@@H](CCCCN)C(=O)N[C@@H](CCCCN)C(=O)N[C@@H](CCCN=C(N)N)C(=O)NCC(N)=O` here?
A: > 100 nM

Q: With H-TARERRRKKRG-NH2 as the compound, how does the Ki read?
A: > 100 nM

Q: `C[C@@H](O)[C@H](N)C(=O)N1CCC[C@H]1C(=O)N[C@@H](CCC(N)=O)C(=O)N[C@@H](CCCN=C(N)N)C(=O)NC1(C(=O)N[C@@H](CCCN=C(N)N)C(=O)N[C@@H](CCCN=C(N)N)C(=O)N[C@@H](CCCN=C(N)N)C(=O)N[C@@H](CCCCN)C(=O)N[C@@H](CCCCN)C(=O)N[C@@H](CCCNC(=N)N)C(=O)NCC(=O)O)CCCC1` was tested. Which Ki did it give?
A: > 100 nM

Q: `C[C@H](NC(=O)[C@H](CCCNC(=N)N)NC(=O)[C@H](CCC(N)=O)NC(=O)[C@@H]1CCCN1C(=O)[C@@H](N)[C@@H](C)O)C(=O)N[C@@H](CCCNC(=N)N)C(=O)N[C@@H](CCCNC(=N)N)C(=O)N[C@@H](CCCNC(=N)N)C(=O)N[C@@H](CCCCN)C(=O)N[C@@H](CCCCN)C(=O)N[C@@H](CCCNC(=N)N)C(=O)NC1(C(=O)O)CCCC1` (H-TPQRARRRKKR[Ac5c]-OH) was tested. Which Ki did it give?
A: > 100 nM

Q: With `CSCC[C@H](NC(=O)[C@H](CCCNC(=N)N)NC(=O)[C@H](CCCCN)NC(=O)[C@H](CCCCN)NC(=O)[C@H](CCCNC(=N)N)NC(=O)[C@H](CCCNC(=N)N)NC(=O)[C@H](CCCNC(=N)N)NC(=O)[C@H](C)NC(=O)[C@H](CCCNC(=N)N)NC(=O)[C@@H]1CCCN1C(=O)[C@@H](N)[C@@H](C)O)C(=O)O` as the compound, how does the Ki read?
A: > 100 nM

Q: With H-TPRARRRKKRA-NH2 as the compound, how does the Ki read?
A: > 100 nM

Q: With `C[C@H](NC(=O)[C@@H]1CCCN1C(=O)[C@@H](N)[C@@H](C)O)C(=O)N[C@@H](CCC(=O)O)C(=O)N[C@@H](CCCNC(=N)N)C(=O)N[C@@H](CCCNC(=N)N)C(=O)N[C@@H](CCCNC(=N)N)C(=O)N[C@@H](CCCCN)C(=O)N[C@@H](CCCCN)C(=O)N[C@@H](CCCNC(=N)N)C(=O)N(C)CC(=O)O` (H-TPAERRRKKR[Sar]-OH) as the compound, how does the Ki read?
A: > 100 nM

Q: Which Ki does the source give for H-TPRARRRKKRI-OH here?
A: 30 nM

Q: With H-TPRARRRKKRW-OH as the compound, how does the Ki read?
A: 59 nM

Q: With `C[C@@H](N)C(=O)N1CCC[C@H]1C(=O)N[C@@H](CCCNC(=N)N)C(=O)N[C@@H](CCC(=O)O)C(=O)N[C@@H](CCCNC(=N)N)C(=O)N[C@@H](CCCNC(=N)N)C(=O)N[C@@H](CCCNC(=N)N)C(=O)N[C@@H](CCCCN)C(=O)N[C@@H](CCCCN)C(=O)N[C@@H](CCCNC(=N)N)C(=O)NCC(N)=O` as the compound, how does the Ki read?
A: > 100 nM

Q: H-TPQRARRRKKRA-OH was tested. Which Ki did it give?
A: 115 nM

Q: With `C[C@@H](O)[C@H](N)C(=O)N1CCC[C@H]1C(=O)N[C@@H](CCCN=C(N)N)C(=O)N[C@@H](CCCCN)C(=O)N[C@@H](CCCN=C(N)N)C(=O)N[C@@H](CCCN=C(N)N)C(=O)N[C@@H](CCCN=C(N)N)C(=O)N[C@@H](CCCCN)C(=O)N[C@@H](CCCCN)C(=O)N[C@@H](CCCN=C(N)N)C(=O)NCC(=O)O` as the compound, how does the Ki read?
A: > 100 nM

Q: Which Ki does the source give for `CCCC[C@H](NC(=O)[C@H](CCCNC(=N)N)NC(=O)[C@H](CCC(N)=O)NC(=O)[C@@H]1CCCN1C(=O)[C@@H](N)[C@@H](C)O)C(=O)N[C@@H](CCCNC(=N)N)C(=O)N[C@@H](CCCNC(=N)N)C(=O)N[C@@H](CCCNC(=N)N)C(=O)N[C@@H](CCCCN)C(=O)N[C@@H](CCCCN)C(=O)N[C@@H](CCCNC(=N)N)C(=O)NCC(=O)O` here?
A: > 100 nM

Q: With H-TPRERRRAKRG-OH as the compound, how does the Ki read?
A: > 100 nM

Q: H-TPAERRRKKR-OH was tested. Which Ki did it give?
A: > 100 nM

Q: For H-AAAERRRKKR-OH, which Ki is on record?
A: > 100 nM

Q: How did the Ki turn out when `C[C@@H](O)[C@H](N)C(=O)N1CCC[C@H]1C(=O)N[C@@H](CCC(N)=O)C(=O)N[C@@H](CCCNC(=N)N)C(=O)NC1(C(=O)N[C@@H](CCCNC(=N)N)C(=O)N[C@@H](CCCNC(=N)N)C(=O)N[C@@H](CCCNC(=N)N)C(=O)N[C@@H](CCCCN)C(=O)N[C@@H](CCCCN)C(=O)NC2(C(=O)NCC(=O)O)CCCC2)CCCC1` was run?
A: > 100 nM

Q: With H-TPQRARRRKKRH-OH as the compound, how does the Ki read?
A: > 100 nM

Q: `C[C@@H](O)[C@H](N)C(=O)N1CCC[C@H]1C(=O)N[C@@H](CCC(N)=O)C(=O)N[C@@H](CCCN=C(N)N)C(=O)N[C@H](CCC(=O)O)C(=O)N[C@@H](CCCN=C(N)N)C(=O)N[C@@H](CCCN=C(N)N)C(=O)N[C@@H](CCCN=C(N)N)C(=O)N[C@@H](CCCCN)C(=O)N[C@@H](CCCCN)C(=O)N[C@@H](CCCNC(=N)N)C(=O)NCC(=O)O` was tested. Which Ki did it give?
A: > 100 nM

Q: For `C[C@H](NC(=O)[C@H](C)NC(=O)[C@H](CCCN=C(N)N)NC(=O)[C@H](CCCN=C(N)N)NC(=O)[C@H](CCCN=C(N)N)NC(=O)[C@H](CCC(=O)O)NC(=O)[C@H](CCCN=C(N)N)NC(=O)[C@@H]1CCCN1C(=O)[C@@H](N)[C@@H](C)O)C(=O)N[C@@H](CCCN=C(N)N)C(=O)O`, which Ki is on record?
A: > 100 nM

Q: With H-TPAAARRKKR-OH as the compound, how does the Ki read?
A: > 100 nM

Q: For H-TPRARRRKKRH-OH, which Ki is on record?
A: > 100 nM

Q: For H-TPRYRRRKKRG-OH, which Ki is on record?
A: > 100 nM

Q: H-TPAARRRKKR-OH was tested. Which Ki did it give?
A: > 100 nM

Q: How did the Ki turn out when H-TPQRVRRRKKRG-OH was run?
A: > 100 nM

Q: Which Ki does the source give for `CSC[C@H](NC(=O)[C@H](CCCN=C(N)N)NC(=O)[C@H](CCCCN)NC(=O)[C@H](CCCCN)NC(=O)[C@H](CCCN=C(N)N)NC(=O)[C@H](CCCN=C(N)N)NC(=O)[C@H](CCCN=C(N)N)NC(=O)[C@H](C)NC(=O)[C@H](CCCN=C(N)N)NC(=O)[C@@H]1CCCN1C(=O)[C@@H](N)[C@@H](C)O)C(=O)O` here?
A: 65 nM

Q: How did the Ki turn out when H-TPRIRRRKKRG-NH2 was run?
A: > 100 nM
